Measured values taken from ChEMBL document CHEMBL1268880, “Investigation of 4-piperidinols as novel H3 antagonists” (Bioorg Med Chem Lett, 2010).
pIC50: −log10 of the molar value.

Legend:
Histamine H3 receptor [1] = target: Histamine H3 receptor (Mus musculus, UniProt P58406); test: Antagonist activity against mouse histamine H3 receptor expressed in human HT1080 cells assessed as inhibition of (R)-alpha-methylhistamine-induced increase in intracellular calcium level by FLIPR assay; type: functional, cell-based, HT-1080
Histamine H3 receptor [2] = target: Histamine H3 receptor (Homo sapiens, UniProt Q9Y5N1); test: Antagonist activity against human histamine H3 receptor expressed in human HT1080 cells assessed as inhibition of (R)-alpha-methylhistamine-induced increase in intracellular calcium level by FLIPR assay; type: functional, cell-based, HT-1080
[3] = Selectivity ratio of IC50 for mouse histamine H3 receptor to IC50 for human histamine H3 receptor
hERG (KCNH2) [4] = target: T1, hERG (KCNH2) (Homo sapiens, UniProt Q12809); test: Inhibition of human ERG at 50 uM
hERG (KCNH2) [5] = target: T1, hERG (KCNH2); test: Inhibition of human ERG at 10 uM

Sequence of Histamine H3 receptor (Mus musculus, UniProt P58406) (P58406 whole entry): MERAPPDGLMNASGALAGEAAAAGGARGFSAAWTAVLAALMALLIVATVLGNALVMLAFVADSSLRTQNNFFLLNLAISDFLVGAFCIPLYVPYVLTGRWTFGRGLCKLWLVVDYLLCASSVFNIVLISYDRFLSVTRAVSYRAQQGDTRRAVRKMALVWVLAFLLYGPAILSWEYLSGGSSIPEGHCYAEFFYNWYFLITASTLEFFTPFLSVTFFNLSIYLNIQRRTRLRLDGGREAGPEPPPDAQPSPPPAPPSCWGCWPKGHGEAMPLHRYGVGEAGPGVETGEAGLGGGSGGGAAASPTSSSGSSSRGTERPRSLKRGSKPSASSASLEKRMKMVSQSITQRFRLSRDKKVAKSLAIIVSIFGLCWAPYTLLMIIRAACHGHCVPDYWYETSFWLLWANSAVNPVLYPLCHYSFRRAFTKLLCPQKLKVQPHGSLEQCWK
Sequence of Histamine H3 receptor (Homo sapiens, UniProt Q9Y5N1) (Q9Y5N1 whole entry): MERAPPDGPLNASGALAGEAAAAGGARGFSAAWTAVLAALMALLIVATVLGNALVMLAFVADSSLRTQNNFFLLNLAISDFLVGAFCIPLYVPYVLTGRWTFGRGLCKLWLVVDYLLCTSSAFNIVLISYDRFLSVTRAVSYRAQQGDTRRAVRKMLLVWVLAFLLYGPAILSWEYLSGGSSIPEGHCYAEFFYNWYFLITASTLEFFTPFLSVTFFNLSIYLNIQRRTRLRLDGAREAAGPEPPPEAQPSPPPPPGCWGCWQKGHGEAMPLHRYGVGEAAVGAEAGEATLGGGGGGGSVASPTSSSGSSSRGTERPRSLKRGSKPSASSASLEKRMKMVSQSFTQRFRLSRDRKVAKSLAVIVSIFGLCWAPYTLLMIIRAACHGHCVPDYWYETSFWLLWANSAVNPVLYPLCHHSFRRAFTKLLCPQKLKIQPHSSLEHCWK
T1 sequence (Q12809 whole entry): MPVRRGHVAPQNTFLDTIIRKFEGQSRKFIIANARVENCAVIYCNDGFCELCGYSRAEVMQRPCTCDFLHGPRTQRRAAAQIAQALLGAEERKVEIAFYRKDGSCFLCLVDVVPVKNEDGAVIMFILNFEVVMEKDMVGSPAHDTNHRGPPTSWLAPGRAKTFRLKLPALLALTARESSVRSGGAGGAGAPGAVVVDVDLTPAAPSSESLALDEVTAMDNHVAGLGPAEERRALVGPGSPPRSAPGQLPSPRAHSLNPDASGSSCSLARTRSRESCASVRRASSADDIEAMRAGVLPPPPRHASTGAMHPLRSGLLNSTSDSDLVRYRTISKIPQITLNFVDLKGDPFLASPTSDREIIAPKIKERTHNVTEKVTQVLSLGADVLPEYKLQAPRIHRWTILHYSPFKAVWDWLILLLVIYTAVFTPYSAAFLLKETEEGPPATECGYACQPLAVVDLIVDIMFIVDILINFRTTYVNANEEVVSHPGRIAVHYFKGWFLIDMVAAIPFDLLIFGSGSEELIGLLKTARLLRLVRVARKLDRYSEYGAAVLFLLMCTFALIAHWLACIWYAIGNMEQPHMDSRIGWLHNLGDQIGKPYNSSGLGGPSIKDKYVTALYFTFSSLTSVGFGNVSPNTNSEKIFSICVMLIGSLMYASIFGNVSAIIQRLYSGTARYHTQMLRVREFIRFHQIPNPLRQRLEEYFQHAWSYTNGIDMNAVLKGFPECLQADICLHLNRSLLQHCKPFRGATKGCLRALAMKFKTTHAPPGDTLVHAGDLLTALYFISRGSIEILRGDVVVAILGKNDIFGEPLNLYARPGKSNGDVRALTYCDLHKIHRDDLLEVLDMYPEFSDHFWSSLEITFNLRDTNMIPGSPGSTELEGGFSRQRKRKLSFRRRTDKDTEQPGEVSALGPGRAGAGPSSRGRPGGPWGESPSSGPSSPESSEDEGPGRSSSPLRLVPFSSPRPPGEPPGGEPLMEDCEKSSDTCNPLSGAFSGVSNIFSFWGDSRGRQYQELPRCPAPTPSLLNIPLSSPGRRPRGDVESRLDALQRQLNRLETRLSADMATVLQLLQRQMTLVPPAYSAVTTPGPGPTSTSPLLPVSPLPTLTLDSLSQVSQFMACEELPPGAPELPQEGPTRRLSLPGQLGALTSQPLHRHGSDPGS

Compound	pIC50 (Histamine H3 receptor [1])	pIC50 (Histamine H3 receptor [2])	Ratio IC50 [3]	inhibition at 50 µM (hERG (KCNH2) [4])	inhibition at 10 µM (hERG (KCNH2) [5])
C[C@@H]1C[C@@](O)(C#Cc2cccc3ccccc23)[C@@H](C)CN1C	6.92	8.05	13	15%	
C[C@@H]1CN(C)[C@@H](C)C[C@]1(O)C#Cc1cccc2ccccc12	5.88	7.39			
C[C@@H]1C[C@@](O)(CCc2cccc3ccccc23)[C@@H](C)CN1C	7.07	8.70			16%
CC1CC(O)(C#Cc2cccc3ccccc23)C(C)CN1C (racemic)	6.55	7.96			
CC(=O)OC1(C#Cc2cccc3ccccc23)CC(C)N(C)CC1C (racemic)	< 5.00	5.26			
CC1CC(O)(/C=C/c2cccc3ccccc23)C(C)CN1C (racemic)	6.24	7.70			20%
CC1CC(O)(CCc2cccc3ccccc23)C(C)CN1C (racemic)	6.32	7.77			15%
CC1CC(O)(C#Cc2ccc3ccccc3c2)C(C)CN1C (racemic)	6.09	7.08			
CC1CC(O)(CCc2ccc3ccccc3c2)C(C)CN1C (racemic)	6.91	8.70			0%
CC1CN2CCCC2CC1(O)C#Cc1cccc2ccccc12 (racemic)	6.55	8.30			23%
CC1CN2CCCC2CC1(O)CCc1cccc2ccccc12 (racemic)	6.46	7.85			
CC1CC(O)(C#Cc2cccc3ncccc23)C(C)CN1C (racemic)	6.16	7.92			3%
CC1CC(O)(C#Cc2cccc3cccnc23)C(C)CN1C (racemic)	5.01	6.15			
NC(=NCc1ccc(Cl)cc1)SCCCc1cnc[nH]1 [CLOBENPROPIT]	9.00				
